Series [1] relates to Respiratory Syncytial Virus. The series can be described thus: In vitro screening for activity against Respiratory Syncytial Virus (MTT tetrazolium colorimetric assay, HeLa cells). The settings on record: protection against RSV cytopathology in HeLa cells, 7 days after infection, pEC50 = −log of EC50 in molar units; for EC50: human respiratory syncytial virus, 168 h. The series is classed as cell-based. The gist of the method:
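HeLa cells (4×10^5 cells/ml) added 2 h after ~100 TCID50 RSV to wells holding five-fold compound dilutions, in Eagle's medium with 5% FCS and 20 mM Hepes; mock-infected rows gave cytotoxicity. After 7 days at 37 °C, MTT read at 540 minus 690 nm; EC50/CC50 from dose-response, reported as pEC50 categories.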
On the technique in general: Tetrazolium assays rely on reduction of a dye to a coloured formazan, in cell work by metabolically active cells.

Where only a bound is given, the exact number is not on record here.

`Cc1cc(C)cc(NCc2ccc3nc(NCCCN4CCN(C)CC4)n(Cc4nc(C)ccc4O)c3c2)c1` [Compound 174, 2-{6-[(3,5-Dimethyl-phenylamino)-methyl]-2-[3-(4-methyl-piperazin-1-yl)-propylamino]-benzoimidazol-1-ylmethyl}-6-methyl-pyridin-3-ol]: the melting point came out at 150 °C. This compound also showed an EC50 in series [1] of 3.98 nM. `COc1ccc(CCNc2nc3ccc(CNc4cc(C)cc(C)c4)cc3n2Cc2nc(C)ccc2O)cc1` [Compound 190, 2-{6-[(3,5-Dimethyl-phenylamino)-methyl]-2-[2-(4-methoxy-phenyl)-ethylamino]-benzoimidazol-1-ylmethyl}-6-methyl-pyridin-3-ol] returned a melting point of 178 °C. The EC50 in series [1] was > 100000 nM. In turn, `Cc1cccc(SCc2ccc3nc(NC4CCN(C)CC4)n(Cc4nc(C)ccc4O)c3c2)c1` [Compound 93, 6-methyl-2-[2-(1-methyl-piperidin-4-ylamino)-6-m-tolylsulfanylmethyl-benzoimidazol-1-ylmethyl]-pyridin-3-ol] returned a melting point of 202 °C. The half-maximal effective concentration (EC50) in series [1] was 251 nM. Consider `Cc1ccc(O)c(Cn2c(NC3CCN(C)CC3)nc3ccccc32)n1` [Compound 101], for which the melting point is > 260 °C. This compound showed an EC50 in series [1] of 398 nM. On to `Cc1ccc(O)c(Cn2c(NC3CCN(CCN)CC3)nc3ccc(C=Cc4ccccc4)cc32)n1.Cl` (hydrate or solvate) [Compound 146, 2-{2-[1-(2-Amino-ethyl)-piperidin-4-ylamino]-6-styryl-benzoimidazol-1-ylmethyl}-6-methyl-pyridin-3-ol hydrochloride salt], for which the melting point was > 260 °C. In the case of `Cc1ccc(O)c(Cn2c(NC3CCN(CCN)CC3)nc3ccc(CCc4ccccc4)cc32)n1.Cl` [Compound 143, 2-{2-[1-(2-amino-ethyl)-piperidin-4-ylamino]-6-phenethyl-benzoimidazol-1-ylmethyl}-6-methyl-pyridin-3-ol hydrochloride salt], the melting point was found to be 181 °C. This compound also had an EC50 in series [1] of 1 nM. Compound `Cc1cccc(CNc2ccc3nc(NC4CCN(C)CC4)n(Cc4nc(C)ccc4O)c3c2)c1` [Compound 28, 6-methyl-2-[6-(3-methyl-benzylamino)-2-(1-methyl-piperidin-4-ylamino)-benzoimidazol-1-ylmethyl]-pyridin-3-ol] yielded a melting point of 240 °C. The compound further gave an EC50 in series [1] of 15.8 nM. The compound `Cc1ccc(O)c(Cn2c(NC3CCN(CCN)CC3)nc3ccc(C=Cc4ccccc4)cc32)n1.Cl` [Compound 146, 2-{2-[1-(2-Amino-ethyl)-piperidin-4-ylamino]-6-styryl-benzoimidazol-1-ylmethyl}-6-methyl-pyridin-3-ol hydrochloride salt] returned a melting point of 260 °C. Moreover, the half-maximal effective concentration (EC50) in series [1] is 1.26 nM.

The compound `Cc1cccc(NC(=O)c2ccc3nc(NC4CCN(C)CC4)n(Cc4nc(C)ccc4O)c3c2)c1` [Compound 116, 3-(3-hydroxy-6-methyl-pyridin-2-ylmethyl)-2-(1-methyl-piperidin-4-ylamino)-3H-benzoimidazole-5-carboxylic acid m-tolylamide] showed a melting point of 172 °C. In addition, the midpoint of the response in series [1], the EC50, lay at 7940 nM.

For `Cc1cc(C)cc(NCc2ccc3nc(NCC(O)CO)n(Cc4nc(C)ccc4O)c3c2)c1` (stereo not drawn) [Compound 175, 3-[6-[(3,5-dimethyl-phenylamino)methyl]-1-(3-hydroxy-6-methyl-pyridin-2-ylmethyl)-1H-benzoimidazol-2-ylamino]-propane-1,2-diol], the melting point amounted to 128 °C. For the same compound, in series [1], the EC50 is 31.6 nM.

For the compound `Cc1ccc(O)c(Cn2c(NC3CCN(CCO)CC3)nc3ccc(CCCN)cc32)n1.Cl` [Compound 160, 2-{6-(3-Amino-propyl)-2-[1-(2-hydroxy-ethyl)-piperidin-4-ylamino]-benzoimidazol-1-ylmethyl}-6-methyl-pyridin-3-ol hydrochloride salt], the melting point worked out at 185 °C. The response in series [1] was half-maximal at 12.6 nM (EC50). For the compound `Cc1ccc(O)c(Cn2c(NC3CCN(C)CC3)nc3ccc(CNc4c(F)cccc4F)cc32)n1` [Compound 46], the Activity in series [1] was determined as 7.5. Turning to `Cc1cccc(CCc2ccc3c(c2)nc(NC2CCN(CCN)CC2)n3Cc2nc(C)ccc2O)c1.Cl` [Compound 158], in series [1], the Activity amounted to 7.9.

The compound `Cc1ccc(O)c(Cn2c(NC3CCN(C)CC3)nc3ccc(CNc4cccc(F)c4)cc32)n1` [Compound 18] yielded an Activity in series [1] of 7.9.

As to `Cc1cccc(/C=C/c2ccc3c(c2)nc(NC2CCN(CCN)CC2)n3Cc2nc(C)ccc2O)c1.Cl` [Compound 147], the Activity in series [1] stood at 8.8.

Turning to “2-[6-[(1-ethylidene-3-methyl-penta-2,4-dienylamino)-methyl]-2-(1-methyl-piperidin-4-ylamino)-benzoimidazol-1-ylmethyl]-6-methyl-pyridin-3-ol [Compound 9]”, the Activity in series [1] stood at 8.3. Same read-out and setting: the figure for `Cc1ccc(O)c(Cn2c(NC3CCN(C)CC3)nc3ccc(CN(Cc4ccccc4)c4ccccc4)cc32)n1` [Compound 80] is 6.9.

As to `Cc1cccc(/C=C/c2ccc3nc(NC4CCN(C)CC4)n(Cc4nc(C)ccc4O)c3c2)c1` [Compound 103], the Activity in series [1] came out at 6.3. In series [1], `Cc1ccc(O)c(Cn2c(NC3CCN(CCC(N)=O)CC3)nc3cc(CCc4ccccc4)ccc32)n1` [Compound 170] had an Activity of 5.7. Same read-out and setting: the figure for `Cc1cc(C)cc(NCc2ccc3nc(NCCc4ccccc4)n(Cc4nc(C)ccc4O)c3c2)c1` [Compound 187] is <4; for `Cc1ccc(O)c(Cn2c(NC3CCN(C)CC3)nc3ccc(CO)cc32)n1` [Compound 92] it is 6.6. In turn, `Cc1ccc(O)c(Cn2c(NC3CCN(C)CC3)nc3ccc(CNCCN4CCOCC4)cc32)n1` [Compound 117] came in with an Activity in series [1] of 5.1. As for `Cc1ccc(O)c(Cn2c(NC3CCN(C)CC3)nc3ccc(CN(CCC#N)CCC#N)cc32)n1` [Compound 137], the Activity in series [1] is recorded as <4. `Cc1ccc(O)c(Cn2c(NC3CCN(C)CC3)nc3ccc(CNc4ccccc4-c4ccccc4)cc32)n1` [Compound 42] registered an Activity in series [1] of 7.6. In turn, `Cc1ccc(O)c(Cn2c(NC3CCN(C)CC3)nc3ccc(CN4CCc5cc(Br)ccc54)cc32)n1` [Compound 81] returned an Activity in series [1] of 6.9. Take `Cc1cccc(C(N)c2ccc3nc(NC4CCN(CCO)CC4)n(Cc4nc(C)ccc4O)c3c2)c1` (stereo not drawn) [Compound 148, 2-[2-[1-(2-hydroxy-ethyl)-piperidin-4-ylamino]-6-(m-tolyl-amino-methyl)-benzoimidazol-1-ylmethyl]-6-methyl-pyridin-3-ol]: the melting point turned out to be 137 °C. Regarding `Cc1ccc(O)c(Cn2c(NC3CCN(C)CC3)nc3ccc(CNc4cccc(Br)c4)cc32)n1` [Compound 6], the Activity in series [1] is 8.4. `COc1ccc(CCNc2nc3cc(CNc4cc(C)cc(C)c4)ccc3n2Cc2nc(C)ccc2O)cc1` [Compound 191]: the Activity in series [1] is reported as <4. Still for that read-out and setting: the figure for `COCCN(CCOC)Cc1ccc2nc(NC3CCN(C)CC3)n(Cc3nc(C)ccc3O)c2c1` [Compound 102] is 6.4; for `Cc1ccc(O)c(Cn2c(NC3CCN(C)CC3)nc3ccc(CNc4ccc(CC#N)cc4)cc32)n1` [Compound 34] it is 7.8; for `Cc1ccc(O)c(Cn2c(NC3CCN(C)CC3)nc3ccc(CNc4cccc(Cl)c4)cc32)n1` [Compound 11] it is 8.2. For the compound `Cc1cccc(NCc2cc(C)c3nc(NC4CCN(CCO)CC4)n(Cc4nc(C)ccc4O)c3c2)c1` [Compound 171, 2-[2-[1-(2-Hydroxy-ethyl)-piperidin-4-ylamino]-4-methyl-6-(m-tolylamino-methyl)-benzoimidazol-1-ylmethyl]-6-methyl-pyridin-3-ol], the melting point was determined as 123 °C. Moreover, the response in series [1] was half-maximal at 3.16 nM (EC50). Take `Cc1ccc(O)c(Cn2c(NC3CCN(C)CC3)nc3ccc(CNc4ccc5c(c4)OCCO5)cc32)n1` [Compound 32]: the Activity in series [1] is listed as 7.8. With `Cc1cc(C)cc(NCc2ccc3c(c2)nc(NCCCN2CCN(C)CC2)n3Cc2nc(C)ccc2O)c1` [Compound 179], the Activity in series [1] is 6.2.

For `CCOC(=O)c1cccc(NCc2ccc3nc(NC4CCN(C)CC4)n(Cc4nc(C)ccc4O)c3c2)c1` [Compound 57], the Activity in series [1] was 7.3. Consider `Cc1ccc(O)c(Cn2c(NC3CCN(CCO)CC3)nc3ccc(CCc4ccccc4)cc32)n1` [Compound 162], for which the Activity in series [1] is listed as 7.5. On to `Cc1ccc(O)c(Cn2c(NC3CCN(C)CC3)nc3ccc(NC(=O)CCc4ccccc4)cc32)n1` [Compound 106], for which the Activity in series [1] came out at 6.1. In the case of `COc1ccc(CCNc2nc3cc(CO)ccc3n2Cc2nc(C)ccc2O)cc1` [Compound 189], the Activity in series [1] is listed as <4.

Take `Cc1cccc(NCc2ccc3c(c2)nc(NC2CCN(C)CC2)n3Cc2nc(C)ccc2O)c1` [Compound 130]: the Activity in series [1] was 4.6.

In the case of `Cc1ccc(O)c(Cn2c(NC3CCN(C)CC3)nc3ccc(CN(c4ccccc4)c4ccc(O)cc4)cc32)n1` [Compound 16], the Activity in series [1] came out at 8. As to `Cc1ccc(O)c(Cn2c(NC3CCN(C)CC3)nc3ccc(CNc4ccc(Br)cc4Cl)cc32)n1` [Compound 89], the Activity in series [1] came out at 6.8.

`Cc1ccc(O)c(Cn2c(NC3CCN(C)CC3)nc3ccc(CNc4ccc(Br)cc4F)cc32)n1` [Compound 48] displayed an Activity in series [1] of 7.5. In turn, `Cc1ccc(O)c(Cn2c(NCCCN3CCCCC3)nc3cc(CO)ccc32)n1` [Compound 182] showed an Activity in series [1] of 5. Still for that read-out and setting: the figure for `Cc1ccc(O)c(Cn2c(NC3CCN(C)CC3)nc3cc(CNc4ccccc4)ccc32)n1` [Compound 131] is <4. Turning to `Cc1ccc(O)c(Cn2c(NC3CCN(C)CC3)nc3ccc(/C=C/c4ccccc4)cc32)n1` [Compound 99], in series [1], the Activity is listed as 6.4. `Cc1cc(C)c(NCc2ccc3nc(NC4CCN(C)CC4)n(Cc4nc(C)ccc4O)c3c2)c(Cl)c1` [Compound 88] came in with an Activity in series [1] of 6.8.

One may read the EC50 as the concentration at which the effect is half-maximal. For orientation: melting point means the temperature of the solid-liquid transition.
